According to paper PMC11097166, “Imidazole-Derived Alkyl and Aryl Ethers: Synthesis, Characterization, In Vitro Anticancer and Antioxidant Activities, Carbonic Anhydrase I–II Inhibition Properties, and In Silico Studies” (ACS Omega, 2024):

Tests used:
[1] = test system: HT29 colon cancer cell line; experiment: MTT cell viability assay on HT29; format: cell-based, human; settings: Homo sapiens, HT-29, 24 h incubation
Text: (§1) 96-well plates were used for seeding cells. […] All compounds were run in three repetitions.

[2] = test system: L929 healthy mouse fibroblast cells; experiment: Annexin V binding assay (flow cytometry) on L929; format: cell-based; settings: L929, IC50 dose of the compound for the cancer cell line, 24 h
Method: (§2) Approximately 5 × 10^5 seeds of each cancer cell were seeded into six-well plates and allowed to adhere overnight. […] Cells harvested after trypsinization were suspended in PBS containing at least 1% FBS. The manufacturer’s instructions were then followed, and the Annexin V and dead cell reagent were mixed with the cells. Afterward, the percentage of dead, viable, early and late apoptotic cells was determined using the muse cell analyzer (Millipore) device.

HT29 cell line [3] = experiment: Cell cycle (DNA content) assay on HT29; format: cell-based, human; settings: colon cancer (HT29), IC50 dose
Method: (§3) DNA content (cell cycle) analyses were performed with the MUSE flow cytometry device. When the IC50 results obtained were evaluated, compounds 3a and 3b caused selective toxicity in the HT29 and C6 cancer cell lines compared to L929, respectively. Therefore, the main pathways of compounds 3a and 3b in cells were determined with the MUSE (cell cycle) kit.

FRAP antioxidant assay = settings: trolox standard curve
Method: The FRAP method was used to determine the antioxidant power of compounds. This method, which determines the reducing power of compounds, was developed by Benzie and Strain.[48] Fe(III)–TPTZ complex is formed as a result of the reaction of Fe(III) with tripyridyltriazine (TPTZ), and this complex is reduced to the Fe(II)–TPTZ complex with the antioxidant in the environment. The color of this complex is dark blue and gives the maximum absorbance at 593 nm.[48] Incubation is performed for up to 30 min to complete the reaction, and the correct absorbance values were read. The FRAP values of the samples were calculated as “μmol trolox equiv/g sample” with the help of the standard curve obtained using methanol–trolox standard solutions (0; 0.2; 0.4; 0.6; 0.8; and 1.0 μmol/mL) which were used as the positive control.[49] […]

hCA II = hCA II (Homo sapiens, UniProt P00918); experiment: CA esterase activity method, hCA II; format: biochemical; settings: Table S3; also: key: +: active; -: not effect
Text: (§4) The method used to spectrophotometrically detect the antiepileptic, antiglaucoma, and […] effects of the obtained compounds in vitro is the esterase activity method. This method relies on the esterase activity of CA for the hydrolysis of p-nitrophenyl acetate as a substrate, which is a part of the reaction mechanism involving p-nitrophenol or p-nitrophenolate.

[4] = test system: MCF7 human breast adenocarcinoma cell line; experiment: MTT cell viability assay on MCF7; format: cell-based; settings: Homo sapiens, MCF7, 24 h incubation
Text: as §1

[5] = MTT cell viability assay on L929; settings: mouse, L929 fibroblast cells
Method: (§5) Human breast adenocarcinoma cell line (MCF7), rat glial tumor cell line (C6), healthy mouse fibroblast cell line (L929), and colon cancer (HT29) cell line were purchased from ATCC (American type culture collection) and studied.
(§6) The cytotoxic effects of all compounds by MTT analysis on L929, HT29, MCF7, and C6 cell lines were investigated. 96-well plates were used for seeding cells. Approximately 1 × 10^4 cells were seeded in each well. Cells were allowed to adhere for 24 h, and then the compounds were applied at different concentrations. All compounds were run in three repetitions. Wells with a maximum of 100 μM compounds were incubated for 24 h. Three wells without compounds treated with only DMSO (with total volume of % 0.5) were used as negative controls, and cisplatin was used as a positive control. […] After the MTT interaction, the FRAP wells were emptied, and DMSO solution was placed in them. The formazan crystals formed were dissolved with this solution, and the number of viable cells in each well was determined by color change.

[6] = test system: L929 mouse fibroblast cell line; experiment: MTT cell viability assay on L929; settings: for toxicity in L929 healthy cell line: 100 μM, 24 h, triplicate, MTT; for IC50: Mus musculus, L929, 24 h, read-out: IC50 L929
Method: as §5, §6

hCA I = hCA I (Homo sapiens, UniProt P00915); experiment: CA esterase activity method, hCA I; format: biochemical; settings: Table S3; also: key: +: active; -: not effect
Text: as §4

HT29 cell line [7] = experiment: Annexin V binding assay (flow cytometry) on HT29; format: cell-based, human; settings: HT29, IC50 dose, 24 h
Method: as §2

[8] = test system: C6 rat glial tumor cell line; experiment: MTT cell viability assay on C6; format: cell-based; settings: 24 h incubation
Text: as §1

C6 cell line [9] = experiment: Annexin V binding assay (flow cytometry) on C6; format: cell-based, rat; settings: C6, IC50 dose, 24 h
Method: as §2

C6 cell line [10] = experiment: Cell cycle (DNA content) assay on C6; format: cell-based, rat; settings: glioblastoma (C6), IC50 dose
Method: as §3

Sequence of hCA I (P00915 whole entry): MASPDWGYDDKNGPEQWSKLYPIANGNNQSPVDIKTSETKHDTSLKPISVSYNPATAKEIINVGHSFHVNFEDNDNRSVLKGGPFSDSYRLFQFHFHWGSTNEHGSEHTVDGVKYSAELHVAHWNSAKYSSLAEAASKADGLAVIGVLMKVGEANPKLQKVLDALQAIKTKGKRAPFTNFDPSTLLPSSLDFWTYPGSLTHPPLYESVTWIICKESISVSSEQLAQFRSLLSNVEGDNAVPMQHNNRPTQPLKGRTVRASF

Row | SMILES | IC50 [1] | FRAP (FRAP antioxidant assay) | Effect on hCA II isoenzyme activity (hCA II) | IC50 [4] | viability at 24 h, 100 μM [5] | toxicity in L929 healthy cell line [6] | IC50 [6] | Effect on hCA I isoenzyme activity (hCA I) | IC50 ([8]; Rattus norvegicus, 24 h) | other results
1 | O=C(Cn1ccnc1)c1ccccc1 [Compound 3a, 2-(1H-Imidazol-1-yl)-1-phenylethanone] | 20.9 ± 1.02 µM | 0.18 ± 0.07 μmol trolox equiv/g | - | 161 ± 15.5 µM | ≥ 50% | not toxic | 174 ± 10.1 µM | - | 15.76 ± 0.08 µM | Apoptosis profile: Live [2]: 98.37%; phase in which the cell cycle stopped (HT29 cell line [3]): G0/G1 phase; Apoptosis profile: Early Apop. (HT29 cell line [7]): 7.83%; Apoptosis profile: Late Apop./Dead (HT29 cell line [7]): 22.56%; Apoptosis profile: Live (HT29 cell line [7]): 60.77%
2 | O=C(Cn1ccnc1)c1ccc(Cl)cc1 [Compound 3b, 1-(4-Chlorophenyl)-2-(1H-imidazol-1-yl)ethanone] | 59.6 ± 5.73 µM | 0.20 ± 0.04 μmol trolox equiv/g | - | 117 ± 14.5 µM | ≥ 50% | not toxic | 138 ± 4.06 µM | - | 10.7 ± 0.38 µM | Apoptosis profile: Early Apop. (C6 cell line [9]): 14.96%; Apoptosis profile: Late Apop./Dead (C6 cell line [9]): 18.33%; Apoptosis profile: Live (C6 cell line [9]): 65.46%; Apoptosis profile: Live [2]: 99.17%; phase in which the cell cycle stopped (C6 cell line [10]): G0/G1 phase; IC50 [8]: 10.7 ± 0.38 µM
3 | COc1ccc(C(=O)Cn2ccnc2)cc1 [Compound 3c, 2-(1H-Imidazol-1-yl)-1-(4-methoxyphenyl)ethanone] |  | 0.21 ± 0.03 μmol trolox equiv/g | - |  |  |  |  | - |  | 
4 | OC(Cn1ccnc1)c1ccccc1 (centres unmarked) [Compound 4a, 2-(1H-Imidazol-1-yl)-1-phenylethanol] | 74.6 ± 6.67 µM | 0.31 ± 0.01 μmol trolox equiv/g | + | 104 ± 15.3 µM | ≥ 50% | not toxic | 166 ± 11.9 µM | + | 35.2 ± 0.55 µM | 
5 | OC(Cn1ccnc1)c1ccc(Cl)cc1 (centres unmarked) [Compound 4b, 1-(4-Chlorophenyl)-2-(1H-imidazol-1-yl)ethanol] | 44.1 ± 4.27 µM | 0.25 ± 0.02 μmol trolox equiv/g | + | 84.9 ± 21.5 µM | ≥ 50% | not toxic | 105 ± 10.1 µM | + | 20.1 ± 0.32 µM | 
6 | CCOC(Cn1ccnc1)c1ccccc1 (centres unmarked) [Compound 7, 1-(2-Ethoxy-2-phenylethyl)-1H-imidazole] | 102 ± 11.5 µM | 0.10 ± 0.08 μmol trolox equiv/g | + | 122 ± 28.8 µM | ≥ 50% | not toxic | 173 ± 16.6 µM | + | 26.1 ± 5.7 µM | 
7 | CCCOC(Cn1ccnc1)c1ccccc1 (centres unmarked) [Compound 8, 1-(2-Phenyl-2-propoxyethyl)-1H-imidazole] |  | 0.19 ± 0.02 μmol trolox equiv/g | + |  |  |  |  | + |  | 
8 | C=CCOC(Cn1ccnc1)c1ccccc1 (centres unmarked) [Compound 9, 1-(2-(Allyloxy)-2-phenylethyl)-1H-imidazole] |  | 0.12 ± 0.01 μmol trolox equiv/g | + |  |  |  |  | + |  | 
9 | CCOC(Cn1ccnc1)c1ccc(Cl)cc1 (centres unmarked) [Compound 10, 1-(2-(4-Chlorophenyl)-2-ethoxyethyl)-1H-imidazole] |  | 0.20 ± 0.03 μmol trolox equiv/g | + |  |  |  |  | + |  | 
10 | CCCOC(Cn1ccnc1)c1ccc(Cl)cc1 (centres unmarked) [Compound 11, 1-(2-(4-Chlorophenyl)-2-propoxyethyl)-1H-imidazole] |  | 0.31 ± 0.07 μmol trolox equiv/g | + |  |  |  |  | + |  | 
11 | C=CCOC(Cn1ccnc1)c1ccc(Cl)cc1 (centres unmarked) [Compound 12, 1-(2-(Allyloxy)-2-(4-chlorophenyl)ethyl)-1H-imidazole] |  | 0.28 ± 0.04 μmol trolox equiv/g | + |  |  |  |  | + |  | 
12 | CCOC(Cn1ccnc1)c1ccc(OC)cc1 (centres unmarked) [Compound 13, 1-(2-Ethoxy-2-(4-methoxyphenyl)ethyl)-1H-imidazole] |  | 0.15 ± 0.06 μmol trolox equiv/g | + |  |  |  |  | + |  | 
